Laboratory results: ChEMBL document CHEMBL1129564, “Tyrosine kinase inhibitors. 10. Isomeric 4-[(3-bromophenyl)amino]pyrido[d]-pyrimidines are potent ATP binding site inhibitors of the tyrosine kinase function of the epidermal growth factor receptor” (J Med Chem, 1996)

Each compound was assayed against T1, Epidermal growth factor receptor (Homo sapiens, UniProt P00533) (assay: Inhibition of Epidermal growth factor receptor autophosphorylation in A431 human epidermoid carcinoma cells).
T1 sequence (P00533 whole entry): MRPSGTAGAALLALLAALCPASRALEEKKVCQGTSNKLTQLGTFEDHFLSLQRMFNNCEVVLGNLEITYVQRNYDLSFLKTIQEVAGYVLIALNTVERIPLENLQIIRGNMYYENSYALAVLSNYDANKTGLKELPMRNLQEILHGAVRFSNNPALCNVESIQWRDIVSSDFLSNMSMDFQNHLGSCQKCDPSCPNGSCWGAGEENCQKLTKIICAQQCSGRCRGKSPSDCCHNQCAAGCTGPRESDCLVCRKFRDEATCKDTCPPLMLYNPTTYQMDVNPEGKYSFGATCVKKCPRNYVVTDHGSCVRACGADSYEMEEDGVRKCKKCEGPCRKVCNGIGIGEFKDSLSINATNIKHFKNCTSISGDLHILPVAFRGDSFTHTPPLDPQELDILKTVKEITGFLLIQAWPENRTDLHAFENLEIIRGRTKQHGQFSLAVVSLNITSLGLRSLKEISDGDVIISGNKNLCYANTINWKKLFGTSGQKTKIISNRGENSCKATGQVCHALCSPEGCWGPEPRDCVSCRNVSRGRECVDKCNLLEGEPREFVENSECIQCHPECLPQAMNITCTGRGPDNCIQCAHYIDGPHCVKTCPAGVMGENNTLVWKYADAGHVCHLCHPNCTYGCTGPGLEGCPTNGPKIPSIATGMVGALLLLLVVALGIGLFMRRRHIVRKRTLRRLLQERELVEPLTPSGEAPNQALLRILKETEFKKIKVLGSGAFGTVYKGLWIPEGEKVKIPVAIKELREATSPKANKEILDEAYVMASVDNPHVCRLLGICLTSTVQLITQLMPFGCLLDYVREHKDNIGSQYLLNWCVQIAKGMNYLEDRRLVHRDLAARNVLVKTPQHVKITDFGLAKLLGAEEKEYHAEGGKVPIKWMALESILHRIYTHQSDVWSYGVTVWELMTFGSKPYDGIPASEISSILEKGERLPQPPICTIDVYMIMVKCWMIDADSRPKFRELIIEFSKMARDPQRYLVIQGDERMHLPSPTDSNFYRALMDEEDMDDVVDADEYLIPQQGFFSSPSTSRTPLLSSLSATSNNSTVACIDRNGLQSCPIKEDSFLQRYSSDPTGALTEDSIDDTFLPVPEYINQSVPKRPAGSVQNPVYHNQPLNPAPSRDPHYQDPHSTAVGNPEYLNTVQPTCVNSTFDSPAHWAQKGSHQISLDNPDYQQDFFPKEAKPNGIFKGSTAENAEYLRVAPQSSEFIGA

| SMILES | IC50 [µM] |
| --- | --- |
| Nc1cc2ncnc(NCc3ccccc3)c2cn1 | 2.08 |
| CN(C)c1ccc2c(Nc3cccc(Br)c3)ncnc2n1 | 2.3 |
| Nc1cc2c(Nc3cccc(Br)c3)ncnc2cn1 | 0.016 |
| CN(C)c1cc2ncnc(Nc3cccc(Br)c3)c2cn1 | 0.014 |
| CNc1cc2c(Nc3cccc(Br)c3)ncnc2cn1 | 0.015 |
| CNc1cc2ncnc(Nc3cccc(Br)c3)c2cn1 | 0.016 |

These compounds were tested against T1, Epidermal growth factor receptor (assay: biochemical).
Description: Inhibitory potency against isolated epidermal growth factor receptor (EGFR) from human A431 carcinoma cells

| SMILES | IC50 [µM] |
| --- | --- |
| Clc1ccc2ncnc(Nc3cccc(Br)c3)c2n1 | 0.018 |
| Fc1ccc2c(Nc3cccc(Br)c3)ncnc2n1 | 0.684 |
| CNc1ccc2cncnc2c1 | 0.004 |
| COc1ccc2cncnc2c1 | 0.01 |
| CN(C)c1ccc2c(Nc3cccc(Br)c3)ncnc2n1 | 0.324 |
| COc1ccc2ncnc(Nc3cccc(Br)c3)c2n1 | 0.0043 |
| Brc1cccc(Nc2ncnc3cnccc23)c1 | 0.051 |
| c1ccc(CNc2ncnc3cnccc23)cc1 | 2.03 |
| Nc1cc2c(Nc3cccc(Br)c3)ncnc2cn1 | 0.00013 |
| COc1ccc2ncncc2c1 | 0.03 |
| Brc1cccc(Nc2ncnc3ccncc23)c1 | 0.035 |
| CN(C)c1ccc2cncnc2c1 | 0.011 |
| CNC1=CC2N=CN(C)/C(=N\c3cccc(Br)c3)C2C=N1 (configuration not stated) | 0.0031 |
| COc1ccc(CNc2cc3c(Nc4cccc(Br)c4)ncnc3cn2)cc1 | 0.0023 |
| Nc1ccc2ncncc2c1 | 0.00079 |
| c1ccc(CNc2ncnc3cccnc23)cc1 | 0.603 |
| CNc1ccc2ncncc2c1 | 0.007 |
| CNc1cc2c(Nc3ccccc3)ncnc2cn1 | 0.009 |
| c1ccc(CNc2ncnc3ncccc23)cc1 | > 10 |
| Brc1cccc(Nc2ncnc3ncccc23)c1 | 0.688 |
| c1ccc(CNc2ncnc3ccncc23)cc1 | 1.46 |
| Fc1ccc2ncnc(Nc3cccc(Br)c3)c2n1 | 0.044 |
| Brc1cccc(Nc2ncnc3cccnc23)c1 | 0.034 |
| CN(C)c1ccc2ncncc2c1 | 0.12 |
| Nc1ccc2cncnc2c1 | 0.0001 |
| c1ccc2ncncc2c1 [QUINAZOLINE] | 0.027 |
